Reference: patent US11168106B1, “Synthesis and stabilization of nicotinamide ribose and its derivatives” (priority 2017, dated 2021)

How the values were obtained:
[1] = Decomposition of nicotinamide ribose in water with and without borate, HPTLC read at 254 nm; type: physicochemical; conditions: for Area [%] of assigned substance, decomposition of nicotinamide ribose with borate: boric acid added in 1:1 molar ratio, in water; for Area [%] of assigned substance, decomposition of nicotinamide ribose with borate / Area [%] of assigned substance, decomposition of nicotinamide ribose without borate: water bath 65° C., 8 h, HPTLC at 254 nm; for Area [%] of assigned substance, decomposition of nicotinamide ribose without borate: 1 mg/mL in water
Protocol: Nicotinamide riboside (NR) as its chloride salt was used at 100 mM. Boric acid: was used at 300 mM. All samples were prepared in water. This, 1 mg/mL of nicotinamide riboside of capsule content was weighed in a 25 mL volumetric flask. Water was added to 25 mL total volume. For the reaction in the presence of boric acid, the same was done with boric acid added in a 1:1 molar ratio. In either case, 5 mL of each solution prepared was placed in the water bath at 65° C. A control was incubated at room temperature. After incubation for 8 h, 2 μL of each solution (heated and not heated) are placed on the HPTLC plate. The plate is eluted in the following mobile phase: ethanol, ammonium acetate 1 M (7:3). The plate is read at 254 nm to obtain the respective peaks.

NAD = conditions: healthy middle-aged and older adults, cited from earlier work

Structure (SMILES)	Area [%] of assigned substance, decomposition of nicotinamide ribose with borate [1] [%]	Area [%] of assigned substance, decomposition of nicotinamide ribose without borate [1] [%]	Stabilization with respect to decomposition ([1]; boric acid vs no boric acid (FIG. 3 and FIG. 4))	Effect on NAD level (NAD; chronic supplementation)	Tolerability of chronic supplementation (NAD)
NC(=O)c1cccnc1 [Nicotinamide]	13.92	29.8122	–	–	–
NC(=O)c1ccc[n+]([C@@H]2O[C@H](CO)[C@@H](O)[C@H]2O)c1 [Nicotinamide riboside]	86.08	70.1878	stabilized by boric acid	elevates NAD	well-tolerated
